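Following 48 hours of exposure in 96-well plates, responses at five concentrations were used to interpolate endpoints linearly. GI50: concentration for 50% inhibition of growth.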 Calls of active or inactive are those of the source. Rule as the data show it: active = GI50 up to about 1.1 µM and inactive = higher.

This is an account of results in ChEMBL document CHEMBL1201862, “PubChem BioAssay data set” (2004).

Experiment in all cases: NCI-60 cell line screen, 48 h
For assay [1], the system named is SW-620.
Assay [2] relates to SF-295.
Assay [3] deals with NCI/ADR-RES.
Assay [4] deals with MOLT-4.
The test system of assay [5] is RPMI-8226.
Assay [6] has as its system OVCAR-8.
The subject of assay [7] is HL-60.
In assay [8] the test system is UACC-62.
In assay [9] the test system is SK-MEL-5.
The test system of assay [10] is KM12.
Assay [11] has as its system SK-MEL-2.
Assay [12] has as its system UACC-257.
Assay [13] concerns NCI-H522.
Assay [14] concerns COLO 205.
Assay [15] has as its system Hs-578T.
Assay [16] deals with M14.
Assay [17] relates to MDA-MB-435.
Assay [18] has as its system SF-539.
Assay [19] deals with OVCAR-4.
The subject of assay [20] is SNB-75.

As to `N#CC1(O)CCCCCCCCCCC1`, the GI50 in assay [1], in assay [2], in assay [3], in assay [4], in assay [5] and in assay [6] was > 100 µM (inactive) each time. The GI50 in assay [7], in assay [8], in assay [9], in [10], in assay [11] and in [12] was > 100 µM (inactive) throughout. The GI50 in assay [13] is 48.8 µM (inactive); in [14] it was > 100 µM (inactive); in assay [15], > 100 µM (inactive); in assay [16] it was > 100 µM (inactive); in assay [17] it was > 100 µM (inactive); in assay [18], > 100 µM (inactive). In addition, the GI50 in [19] is > 100 µM (inactive).

With `NNC(=O)c1ccc[n+](CCc2ccccc2)c1`, the GI50 in assay [1], in assay [20], in assay [2], in assay [3], in assay [4] and in [5] was > 100 µM (inactive) throughout. Further, the GI50 in [6], in assay [7], in assay [8], in assay [9], in [10] and in assay [12] was > 100 µM (inactive) in each case. The GI50 in assay [13], in [14], in [15], in [16], in assay [17] and in assay [19] was > 100 µM (inactive) throughout.

Take `COC(=O)c1c(O)ccc2c1c1c(n2C)C(=O)c2ccccc2C1=O`: the GI50 in assay [1] is 59.4 µM (inactive); in assay [20], 2.48 µM (inactive); in assay [2] it was 22.5 µM (inactive); in assay [3], 43.7 µM (inactive); in assay [4], 5.78 µM (inactive); in [5] it was 4.78 µM (inactive). For the same molecule, the GI50 in assay [6] was 17.8 µM (inactive); in assay [7], > 100 µM (inactive); in assay [9], 30.9 µM (inactive); in assay [10], 57.7 µM (inactive); in [11], 25.4 µM (inactive); in [12], > 100 µM (inactive). In addition, the GI50 in assay [13] was 18.4 µM (inactive); in assay [14], 65.9 µM (inactive); in [15], 6.93 µM (inactive); in assay [16] it was 49.2 µM (inactive); in assay [17], 33 µM (inactive); in assay [18] it was 17.6 µM (inactive). Further, the GI50 in assay [19] was 13.6 µM (inactive).

For `Cc1cc2c(cc1Cl)SC(c1ccccc1)C(=O)NS2(=O)=O` (configuration not stated), the GI50 in [1] is 40 µM (inactive); in [20], 19.7 µM (inactive); in assay [2] it was 28.3 µM (inactive); in [3], 29.5 µM (inactive); in [4], 26 µM (inactive); in assay [5] it was 34 µM (inactive). In addition, the GI50 in assay [6] is 36.2 µM (inactive); in [7], 29.3 µM (inactive); in [9] it was 21.6 µM (inactive); in assay [10], 30.3 µM (inactive); in assay [11] it was 17.3 µM (inactive); in assay [12] it was 28.2 µM (inactive). Moreover, the GI50 in assay [13] was 25.9 µM (inactive); in assay [15] it was 27.5 µM (inactive); in assay [16] it was 39 µM (inactive); in assay [17], 35.1 µM (inactive); in assay [18], 26.7 µM (inactive); in assay [19], 35.4 µM (inactive).

Consider `COC(=O)C1=C(C(=O)OC)C(C(=O)c2ccc(Br)cc2)N2N=C(c3ccc(Cl)cc3)C=CC12` (configuration not stated), for which the GI50 in assay [1] is > 100 µM (inactive); in assay [20], 35.2 µM (inactive); in assay [2], 67 µM (inactive); in assay [3], > 100 µM (inactive); in assay [4] it was > 100 µM (inactive); in assay [5], > 100 µM (inactive). Besides, the GI50 is > 100 µM (inactive) in assay [6]; > 100 µM (inactive) in assay [7]; 25.2 µM (inactive) in assay [8]; > 100 µM (inactive) in assay [9]; 14.5 µM (inactive) in [10]; > 100 µM (inactive) in [11]. Further, the GI50 in assay [12] is > 100 µM (inactive); in assay [13] it was 26.2 µM (inactive); in assay [14], > 100 µM (inactive); in assay [15] it was > 100 µM (inactive); in [16], > 100 µM (inactive); in [17], > 100 µM (inactive). The GI50 in [19] was > 100 µM (inactive).

For the molecule `CCC(C(=O)C(=O)C(CC)P1(=O)OC(C)(C)CN1C(C)(C)C)P1(=O)OC(C)(C)CN1C(C)(C)C` (configuration not stated), the GI50 in assay [1] was > 100 µM (inactive); in [20] it was 49.7 µM (inactive); in assay [2] it was > 100 µM (inactive); in assay [3], > 100 µM (inactive); in assay [4], 22.2 µM (inactive); in assay [5], 43.6 µM (inactive). Moreover, the GI50 in assay [6], in assay [7], in assay [8], in assay [9], in assay [10] and in assay [11] was > 100 µM (inactive) each time. The GI50 in assay [12], in [13], in assay [14], in [15], in assay [16] and in assay [17] was > 100 µM (inactive) each time. Also, the GI50 in assay [18] was > 100 µM (inactive).

In the case of `Cc1cccc(-c2cc(O)c3cc(C)cnc3n2)c1`, the GI50 in [1] was 0.0475 µM (active); in assay [20], 0.157 µM (active); in assay [2] it was 0.148 µM (active); in [3], 0.122 µM (active); in assay [4] it was 0.244 µM (active); in assay [5] it was 0.239 µM (active). Further, the GI50 in assay [6] was 0.39 µM (active); in assay [7] it was 0.0338 µM (active); in assay [8], 0.331 µM (active); in [9] it was 0.12 µM (active); in [10], 0.0869 µM (active); in assay [11], 0.224 µM (active). For the same molecule, the GI50 in assay [13] was 0.0955 µM (active); in [14] it was 0.105 µM (active); in assay [15] it was 0.244 µM (active); in assay [16], 0.0998 µM (active); in assay [17] it was 0.0185 µM (active); in assay [18] it was 0.213 µM (active). Besides, the GI50 in assay [19] was 1.95 µM (inactive).

Regarding `O=C1Nc2ccccc2C1Cc1ccc([N+](=O)[O-])cc1` (configuration not stated), the GI50 in assay [1] is > 100 µM (inactive); in [20], > 100 µM (inactive); in assay [2] it was > 100 µM (inactive); in assay [3] it was > 100 µM (inactive); in assay [4], 14.1 µM (inactive); in [5] it was 34.8 µM (inactive). For the same molecule, the GI50 is > 100 µM (inactive) in assay [6]; 5.57 µM (inactive) in assay [7]; > 100 µM (inactive) in [8]; 57.5 µM (inactive) in assay [9]; 36.2 µM (inactive) in assay [10]; > 100 µM (inactive) in assay [11]. Further, the GI50 is > 100 µM (inactive) in [12]; 35.9 µM (inactive) in [13]; 50 µM (inactive) in [14]; 63.4 µM (inactive) in assay [15]; > 100 µM (inactive) in assay [16]; > 100 µM (inactive) in assay [17]. In addition, the GI50 in assay [19] was 84.5 µM (inactive).

For `CC(C)(C)C1CCC2c3c([nH]c4ccccc34)C3C(=O)N(c4cc(Br)cc(Br)c4)C(=O)C3C2C1` (configuration not stated), the GI50 in assay [1] is 51.2 µM (inactive); in assay [3], 14.6 µM (inactive); in assay [4], 5.26 µM (inactive); in [5], 36.4 µM (inactive); in assay [6], 16 µM (inactive); in [7], 2.55 µM (inactive). Also, the GI50 was 25.1 µM (inactive) in assay [8]; 24.2 µM (inactive) in [9]; 12.6 µM (inactive) in [10]; 26.7 µM (inactive) in assay [11]; > 100 µM (inactive) in [12]; 20.9 µM (inactive) in [13]. Further, the GI50 in assay [14] was 19.6 µM (inactive); in assay [15], 7 µM (inactive); in assay [16], 25.4 µM (inactive); in assay [17], 19.7 µM (inactive); in assay [18] it was 16.7 µM (inactive); in assay [19], 10.1 µM (inactive).

On to `O=C(Sc1c(-c2ccccc2)c(=O)n(-c2ccccc2)c(=S)n1-c1ccccc1)c1ccccc1`, for which the GI50 is 28.6 µM (inactive) in assay [1]; 12.3 µM (inactive) in assay [20]; 47.4 µM (inactive) in assay [2]; 75 µM (inactive) in assay [3]; 19.5 µM (inactive) in assay [4]; 41.8 µM (inactive) in assay [5]. The GI50 in assay [6] is 99.3 µM (inactive); in assay [7] it was 33.2 µM (inactive); in assay [8], 33.5 µM (inactive); in assay [9], 33.9 µM (inactive); in [10], > 100 µM (inactive); in [11], > 100 µM (inactive). Further, the GI50 is > 100 µM (inactive) in assay [12]; 36.1 µM (inactive) in [13]; > 100 µM (inactive) in assay [14]; 33.7 µM (inactive) in [15]; 61.1 µM (inactive) in assay [16]; 93.3 µM (inactive) in assay [17]. Also, the GI50 in [19] is > 100 µM (inactive).
